# Assay results: patent US20090093491A1, “Diazine Azole Derivatives, Their Manufacture and Use as Pharmaceutical” (priority 2005, published 2009)
# Tests used:
# HEK293 cells = test: CellTiter-Glo Luminescent Cell Viability Assay in HEK293 cells; type: cell-based; settings: Homo sapiens, 7 days (168 h) incubation, 3 μM to 0.00015 μM
# Source text: CellTiter-Glo™ Assay in HEK293 Cells
# The CellTiter-Glo™ Luminescent Cell Viability Assay (Promega) is a homogeneous method of determining the number of viable cells in culture based on quantitation of the ATP present, which signals the presence of metabolically active cells.
# HEK293 cells (human embryonic kidney cell line transformed by Adenovirus 5 fragments, ATCC-No. CRL 1573) are cultivated in Dulbecco's Modified Eagle Medium (DMEM) with Glutamax™ (Invitrogen, 31966-021), 5% Fetal Calf Serum (FCS, Sigma Cat-No. F4135 (FBS)), 100 Units/ml penicillin/100 μg/ml streptomycin (=Pen/Strep from Invitrogen Cat. No. 15140). For the assay the cells are seeded in 384 well plates, 5000 cells per well, in the same medium. The next day the test compounds are added in various concentrations ranging from 3 μM to 0.00015 μM (10 concentrations, 1:3 diluted). After 7 days the CellTiter-Glo™ assay is done according to the instructions of the manufacturer (CellTiter-Glo™ Luminescent Cell Viability Assay, from Promega). In brief: the cell-plate is equilibrated to room temperature for approximately 30 minutes and than the CellTiter-Glo™ reagent is added. The contents are carefully mixed for 15 minutes to induce cell lysis. After 45 minutes the luminescent signal is measured in Victor 2, (scanning multiwell spectrophotometer, Wallac).
# 1. day: • Medium: Dulbecco's Modified Eagle Medium (DMEM) with Glutamax™ (Invitrogen, 31966-021), 5% Fetal Calf Serum (FCS, Sigma Cat-No. F4135 (FBS)), Pen/Strep (Invitrogen Cat. No. 15140). • HEK293 (ATCC-No. CRL 1573): 5000 cells in 60 μl per well of 384 well plate (Greiner 781098, white plates) • Incubate 24 h at 37° C., 5% CO2 2. day: Induction (Substance testing):
# In general the dilution steeps are 1:3 • a) Add 8 μl of 10 mM stock solution of compound to 72 μl DMSO • b) dilute 9× 1:3 (always 30 μl to 60 μl DMSO) in this DMSO dilution row (results in 10 wells with concentrations from 1000 μM to 0.06 μM) • c) dilute each concentration 1:4.8 (10 μl compound dilution to 38 μl medium) • d) dilute each concentration 1:10 (10 μl compound dilution to 90 μl medium) • e) add 10 μl of every concentration to 60 μl medium in the cell plate • resulting in final concentration of DMSO: 0.3% in every well • and resulting in final concentration of compounds from 3 μM to 0.00015 μM • Incubate 168 h (7 days) at 37° C., 5% CO2
# • Add 30 μl CellTiter-Glo™ Reagent/well, • shake 15 minutes at room temperature • incubate further 45 minutes at room temperature without shaking.
# • Victor 2 scanning multiwell spectrophotometer (Wallac), Luminescence mode • Determine IC50 with XL-fit (XLfit software (ID Business Solution Ltd., Guilford, Surrey, UK)).
melting point [°C],Structure (SMILES),IC50 (HEK293 cells) [nM]
147 to 148,"FC(F)(F)c1ccc(/C=C/c2nc(COc3cnc(CCCCn4cncn4)cn3)co2)cc1 [Example 5, 2-(4-[1,2,4]Triazol-1-yl-butyl)-5-{2-[(E)-2-(4-trifluoromethyl-phenyl)-vinyl]-oxazol-4-ylmethoxy}-pyrazine]",200 to 2000
143 to 145,"FC(F)(F)Oc1ccc(/C=C/c2nc(COc3ncc(CCCCn4cccn4)cn3)co2)cc1 [Example 8, 5-(4-Pyrazol-1-yl-butyl)-2-{2-[(E)-2-(4-trifluoromethoxy-phenyl)-vinyl]-oxazol-4-ylmethoxy}-pyrimidine]",200 to 2000
156 to 157,"FC(F)(F)c1ccc(/C=C/c2nc(COc3ncc(CCCCn4cccn4)cn3)co2)cc1 [Example 9, 5-(4-Pyrazol-1-yl-butyl)-2-{2-[(E)-2-(4-trifluoromethyl-phenyl)-vinyl]-oxazol-4-ylmethoxy}-pyrimidine]",–
149 to 150,"Clc1ccc(/C=C/c2nc(COc3ncc(CCCCn4cccn4)cn3)co2)cc1 [Example 10, 5-(4-Pyrazol-1-yl-butyl)-2-{2-[(E)-2-(4-chloro-phenyl)-vinyl]-oxazol-4-ylmethoxy}-pyrimidine]",200 to 2000

# Second part, the compound before the results:
Structure (SMILES),melting point [°C],IC50 (HEK293 cells) [nM]
"FC(F)(F)Oc1ccc(/C=C/c2nc(COc3ccc(CCCCn4ccnc4)nn3)co2)cc1 [Example 1, 3-(4-Imidazol-1-yl-butyl)-6-{2-[(E)-2-(4-trifluoromethoxy-phenyl)-vinyl]-oxazol-4-ylmethoxy}-pyridazine]",–,200 to 2000
"Clc1ccc(/C=C/c2nc(COc3ccc(CCCCn4cncn4)nn3)co2)cc1 [Example 2, 3-{2-[(E)-2-(4-Chloro-phenyl)-vinyl]-oxazol-4-ylmethoxy}-6-(4-[1,2,4]triazol-1-yl-butyl)-pyridazine]",165 to 167,200 to 2000
"FC(F)(F)c1ccc(/C=C/c2nc(COc3ccc(CCCCn4cncn4)nn3)co2)cc1 [Example 3, 3-(4-[1,2,4]Triazol-1-yl-butyl)-6-{2-[(E)-2-(4-trifluoromethyl-phenyl)-vinyl]-oxazol-4-ylmethoxy}-pyridazine]",145 to 146,930
"Fc1cc(C(F)(F)F)ccc1/C=C/c1nc(COc2ccc(CCCCn3cncn3)nn2)co1 [Example 4, 3-{2-[(E)-2-(2-Fluoro-4-trifluoromethyl-phenyl)-vinyl]-oxazol-4-ylmethoxy}-6-(4-[1,2,4]triazol-1-yl-butyl)-pyridazine]",141 to 143,200 to 2000
"Clc1ccc(/C=C/c2nc(COc3cnc(CCCCn4cncn4)cn3)co2)cc1 [Example 6, 2-{2-[(E)-2-(4-Chloro-phenyl)-vinyl]-oxazol-4-ylmethoxy}-5-(4-[1,2,4]triazol-1-yl-butyl)-pyrazine]",157 to 158,1340
"FC(F)(F)Oc1ccc(/C=C/c2nc(COc3cnc(CCCCn4cncn4)cn3)co2)cc1 [Example 7, 2-(4-[1,2,4]Triazol-1-yl-butyl)-5-{2-[(E)-2-(4-trifluoromethoxy-phenyl)-vinyl]-oxazol-4-ylmethoxy}-pyrazine]",121 to 123,–
